{"source": "paper PMC9095466", "about": "(Nature, 2022)", "key": {"Recombinant human DESC1": {"molecular_target": "T1, Recombinant human DESC1 (Homo sapiens, UniProt Q9UL52)", "T1 construct": "made in house", "T1 sequence (Q9UL52 1-423)": "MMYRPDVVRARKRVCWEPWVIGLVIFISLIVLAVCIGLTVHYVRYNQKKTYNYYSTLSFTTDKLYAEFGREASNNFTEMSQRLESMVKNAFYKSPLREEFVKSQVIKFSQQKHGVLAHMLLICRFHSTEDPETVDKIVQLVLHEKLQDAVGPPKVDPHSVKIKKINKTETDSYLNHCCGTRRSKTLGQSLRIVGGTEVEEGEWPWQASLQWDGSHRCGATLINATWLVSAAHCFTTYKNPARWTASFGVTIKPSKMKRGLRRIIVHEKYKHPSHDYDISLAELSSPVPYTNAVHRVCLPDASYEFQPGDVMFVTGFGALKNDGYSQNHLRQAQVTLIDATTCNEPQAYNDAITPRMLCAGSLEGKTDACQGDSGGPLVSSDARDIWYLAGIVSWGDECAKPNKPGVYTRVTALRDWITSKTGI", "assay": "Protease selectivity, Ki on recombinant protease", "type": "biochemical", "conditions": "mean ± s.d., max concentration 10 µM; read-out: Ki DESC1"}, "human cathepsin L": {"molecular_target": "T2, human cathepsin L (Homo sapiens, UniProt P07711)", "T2 construct": "purchased Bio-Techne", "T2 sequence (P07711 114-333)": "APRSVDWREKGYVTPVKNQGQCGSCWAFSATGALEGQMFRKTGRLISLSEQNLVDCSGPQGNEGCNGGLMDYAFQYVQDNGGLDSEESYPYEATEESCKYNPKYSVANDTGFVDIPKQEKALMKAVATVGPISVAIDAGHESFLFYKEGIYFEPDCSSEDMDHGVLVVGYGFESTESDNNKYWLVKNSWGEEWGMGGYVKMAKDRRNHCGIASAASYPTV", "assay": "Protease selectivity, Ki on protease", "type": "biochemical", "conditions": "mean ± s.d., max concentration 10 µM; read-out: Ki Cathepsin L"}, "[1]": {"assay": "Cytotoxicity assay (Cell Titer-Glo 2.0) in Vero E6 cells", "type": "cell-based", "conditions": "African green monkey", "description": "Calu-3 and Vero E6 cells (2500 or 10,000 cells for samples, 80–20,000 cells for standard curve) were seeded in 96-well plates. Following a 24-h incubation at 37 °C, 5% CO2, cells were washed with D-PBS and compounds added (10 µM) for an additional 24-h incubation. Cellular viability was assessed using Cell Titer-Glo 2.0 Cell Viability Assay (Promega) according to the manufacturer’s instructions. The number of viable cells was extrapolated using the standard curve. Cellular viability in Vero E6 cells was expressed relative (%) to vehicle-treated cells. Data are from four independent experiments (mean ± s.d.)."}, "[2]": {"assay": "Cytotoxicity CC50 in Calu-3 lung epithelial cells", "type": "cell-based, human", "conditions": "human; Calu-3 lung epithelial cells, n = 2; read-out: CC50 in Calu-3 cells"}, "human TMPRSS2": {"molecular_target": "human TMPRSS2 (Homo sapiens, UniProt O15393)", "sequence (O15393 whole entry)": "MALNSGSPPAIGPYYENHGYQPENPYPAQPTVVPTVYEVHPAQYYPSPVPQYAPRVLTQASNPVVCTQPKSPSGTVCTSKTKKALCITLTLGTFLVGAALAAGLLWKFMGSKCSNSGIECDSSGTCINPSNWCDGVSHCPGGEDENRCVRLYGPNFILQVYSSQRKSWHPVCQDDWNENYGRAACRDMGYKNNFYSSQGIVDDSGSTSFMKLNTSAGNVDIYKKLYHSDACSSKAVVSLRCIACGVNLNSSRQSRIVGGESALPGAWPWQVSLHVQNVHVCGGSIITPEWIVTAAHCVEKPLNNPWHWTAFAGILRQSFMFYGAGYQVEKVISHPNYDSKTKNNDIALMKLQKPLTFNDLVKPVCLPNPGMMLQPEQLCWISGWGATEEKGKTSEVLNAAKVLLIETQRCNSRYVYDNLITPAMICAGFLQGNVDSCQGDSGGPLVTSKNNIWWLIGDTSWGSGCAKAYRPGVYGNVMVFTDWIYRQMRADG", "assay": "cell-based"}, "Recombinant human furin": {"molecular_target": "T3, Recombinant human furin (Homo sapiens, UniProt P09958)", "T3 construct": "purchased Bio-Techne", "T3 sequence (P09958 108-794)": "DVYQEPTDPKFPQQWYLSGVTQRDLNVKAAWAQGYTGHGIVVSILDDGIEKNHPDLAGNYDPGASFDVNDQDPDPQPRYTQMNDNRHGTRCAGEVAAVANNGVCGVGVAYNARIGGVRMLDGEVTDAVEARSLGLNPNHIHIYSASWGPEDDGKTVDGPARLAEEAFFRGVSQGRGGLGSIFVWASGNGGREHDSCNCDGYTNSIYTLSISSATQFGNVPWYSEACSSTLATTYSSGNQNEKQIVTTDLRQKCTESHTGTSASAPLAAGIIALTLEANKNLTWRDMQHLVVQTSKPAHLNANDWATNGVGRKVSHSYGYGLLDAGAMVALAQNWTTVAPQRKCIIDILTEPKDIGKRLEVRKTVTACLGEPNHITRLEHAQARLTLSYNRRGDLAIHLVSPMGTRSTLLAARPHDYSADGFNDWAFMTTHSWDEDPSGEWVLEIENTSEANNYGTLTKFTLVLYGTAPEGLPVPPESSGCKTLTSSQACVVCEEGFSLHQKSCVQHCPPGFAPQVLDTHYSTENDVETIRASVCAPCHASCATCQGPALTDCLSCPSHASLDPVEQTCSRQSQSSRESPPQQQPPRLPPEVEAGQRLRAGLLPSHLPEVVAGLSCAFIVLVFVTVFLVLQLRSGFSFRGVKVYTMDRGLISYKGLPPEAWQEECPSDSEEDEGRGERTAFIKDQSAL", "assay": "Protease selectivity, Ki on recombinant protease", "type": "biochemical", "conditions": "mean ± s.d., max concentration 10 µM; read-out: Ki Furin"}, "[3]": {"test_system": "SARS-CoV-2 lineage B strain (VIDO)", "assay": "microbe, parasite or virus in culture", "type": "cell-based"}}, "note": "Where “and” joins values, the source holds several entries; their conditions need not be identical. Identical values can stand only once. Like-named read-outs stand apart in the source and are kept apart here."}
{"smiles": "CS(=O)(=O)NC(CCC(N)=O)C(=O)NC(Cc1ccccc1)C(=O)NC(CCCNC(=N)N)C(=O)c1nc2ccccc2s1", "note": "(stereo not shown) [Compound N-0385, Ms-QFR-kbt]", "values": [{"measurement": "Ki", "setting": "Recombinant human DESC1", "result": "0.0266 ± 0.0088", "unit": "µM"}, {"measurement": "Ki", "setting": "human cathepsin L", "result": "6.29 ± 3.61", "unit": "µM"}, {"measurement": "viability at 24 h, 10 µM", "setting": "[1]; 10 μM compound, 24 h, relative to vehicle (DMSO 0.01%), single experiments N1-N4, read-out: % Viability of Vero E6 cells", "result": 127, "unit": "%"}, {"measurement": "viability at 24 h, 10 µM", "setting": "[1]; % Viability of Vero E6 cells", "result": 100, "unit": "%"}, {"measurement": "CC50 at 24 h", "setting": "[2]", "result": 3470, "unit": "µM"}, {"measurement": "TMPRSS2 activity (%)", "setting": "human TMPRSS2; Figure 1B, single experiments N1-N3", "result": "12.847% and 18.5887% and 21.0267%"}, {"measurement": "inhibition at 0.01 µM", "setting": "human TMPRSS2; Vero C1008, 10 nM compound, 24 h, vs untreated/vehicle TMPRSS2-expressing Vero E6 cells, read-out: inhibition of TMPRSS2 activity (reduction of substrate proteolysis)", "result": 83, "unit": "%"}, {"measurement": "Ki", "setting": "Recombinant human furin", "result": "> 10", "unit": "µM"}, {"measurement": "Nucleocapsid", "setting": "[3]; Figure 2a, two replicates, DMSO control about 91-94", "result": "1.14 and 1.542"}, {"measurement": "dsRNA", "setting": "[3]; Figure 2a, two replicates, DMSO control about 93-95", "result": "2.011 and 2.808"}, {"measurement": "EC50", "setting": "[3]; Severe acute respiratory syndrome coronavirus 2, Calu-3, read-out: SARS-CoV-2 VIDO Nucleocapsid EC50 ± SE", "result": "0.0028 ± 0.0014", "unit": "µM"}, {"measurement": "inhibition at 0.1 µM", "setting": "[3]; Severe acute respiratory syndrome coronavirus 2, Calu-3, read-out: inhibition of SARS-CoV-2 infection", "result": "> 99", "unit": "%"}, {"measurement": "Figure 2b dose-response, Mean", "setting": "[3]; log [C] (nM) 0.20412", "result": 56.2346}, {"measurement": "Figure 2b dose-response, Mean", "setting": "[3]; log [C] (nM) 0.90309", "result": 18.4653}, {"measurement": "Figure 2b dose-response, Mean", "setting": "[3]; log [C] (nM) 1.60206", "result": 7.161}, {"measurement": "Figure 2b dose-response, Mean", "setting": "[3]; log [C] (nM) 2.30103", "result": 5.446}, {"measurement": "Figure 2b dose-response, Mean", "setting": "[3]; log [C] (nM) 3", "result": 1.469}, {"measurement": "Figure 2b dose-response, Mean", "setting": "[3]; log [C] (nM) -0.49485", "result": 74.438}, {"measurement": "Figure 2b dose-response, Mean", "setting": "[3]; log [C] (nM) -1.19382", "result": 85.6866}]}
